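How tested: cells in 96-well plates exposed to compound for 48 hours at five concentrations. Abbreviation: GI50, concentration required for 50% inhibition of growth. At the TGI there is no net growth.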
Key:
Experiment in all cases: growth of human tumour cells (NCI), 48 h
SK-MEL-28 melanoma = tested on: SK-MEL-28 melanoma
U251 CNS = tested on: U251 CNS
BT-549 breast = tested on: BT-549 breast
UACC-257 melanoma = tested on: UACC-257 melanoma
KM12 colon = tested on: KM12 colon
UO-31 renal = tested on: UO-31 renal
T-47D breast = tested on: T-47D breast
RPMI-8226 leukemia = tested on: RPMI-8226 leukemia
DU-145 prostate = tested on: DU-145 prostate
A498 renal = tested on: A498 renal
MOLT-4 leukemia = tested on: MOLT-4 leukemia
786-0 renal = tested on: 786-0 renal
SK-MEL-2 melanoma = tested on: SK-MEL-2 melanoma
NCI-H522 lung = tested on: NCI-H522 lung
SK-MEL-5 melanoma = tested on: SK-MEL-5 melanoma
NCI-H460 lung = tested on: NCI-H460 lung
SW-620 colon = tested on: SW-620 colon
OVCAR-8 ovarian = tested on: OVCAR-8 ovarian
OVCAR-3 ovarian = tested on: OVCAR-3 ovarian
HL-60(TB) leukemia = tested on: HL-60(TB) leukemia
NCI-H23 lung = tested on: NCI-H23 lung
SF-295 CNS = tested on: SF-295 CNS
UACC-62 melanoma = tested on: UACC-62 melanoma
ACHN renal = tested on: ACHN renal
MALME-3M melanoma = tested on: MALME-3M melanoma
MDA-MB-435 = tested on: MDA-MB-435
SR leukemia = tested on: SR leukemia
HCT-15 colon = tested on: HCT-15 colon
CAKI-1 renal = tested on: CAKI-1 renal
SNB-75 CNS = tested on: SNB-75 CNS
A549 NSCLC = tested on: A549 NSCLC
HS 578T breast = tested on: HS 578T breast
EKVX NSCLC = tested on: EKVX NSCLC
HOP-62 NSCLC = tested on: HOP-62 NSCLC
OVCAR-5 ovarian = tested on: OVCAR-5 ovarian
IGROV1 ovarian = tested on: IGROV1 ovarian
HCC-2998 colon = tested on: HCC-2998 colon
CCRF-CEM leukemia = tested on: CCRF-CEM leukemia
NCI/ADR-RES ovarian = tested on: NCI/ADR-RES ovarian
MCF7 breast = tested on: MCF7 breast
TK-10 renal = tested on: TK-10 renal
PC-3 prostate = tested on: PC-3 prostate
SF-268 CNS = tested on: SF-268 CNS
SN12C renal = tested on: SN12C renal
SF-539 CNS = tested on: SF-539 CNS
MDA-MB-231 breast = tested on: MDA-MB-231 breast
K-562 leukemia = tested on: K-562 leukemia
HCT-116 colon = tested on: HCT-116 colon
HOP-92 NSCLC = tested on: HOP-92 NSCLC

CN(C)Cc1ccc(NC(=O)c2cncc(C#Cc3cnc(N)c4ncccc34)c2)cc1F
GI50 (SK-MEL-28 melanoma): 1.85 µM
TGI (SK-MEL-28 melanoma): 3.46 µM
GI50 (U251 CNS): 1.93 µM
TGI (U251 CNS): 3.89 µM
GI50 (BT-549 breast): 19.4 µM
TGI (BT-549 breast): 39.6 µM
GI50 (UACC-257 melanoma): 7.31 µM
TGI (UACC-257 melanoma): 26.7 µM
GI50 (KM12 colon): 1.7 µM
TGI (KM12 colon): 3.16 µM
GI50 (UO-31 renal): 2.38 µM
TGI (UO-31 renal): 4.08 µM
GI50 (T-47D breast): 10.3 µM
TGI (T-47D breast): 54.7 µM
GI50 (RPMI-8226 leukemia): 1.97 µM
TGI (RPMI-8226 leukemia): 4.75 µM
GI50 (DU-145 prostate): 1.77 µM
TGI (DU-145 prostate): 3.32 µM
GI50 (A498 renal): 6 µM
TGI (A498 renal): 29 µM
GI50 (MOLT-4 leukemia): 2.21 µM
TGI (MOLT-4 leukemia): 5.3 µM
GI50 (786-0 renal): 1.86 µM
TGI (786-0 renal): 3.6 µM
GI50 (SK-MEL-2 melanoma): 14 µM
TGI (SK-MEL-2 melanoma): 35.3 µM
GI50 (NCI-H522 lung): 17.2 µM
TGI (NCI-H522 lung): 53.9 µM
GI50 (SK-MEL-5 melanoma): 1.7 µM
TGI (SK-MEL-5 melanoma): 3.29 µM
GI50 (NCI-H460 lung): 1.93 µM
TGI (NCI-H460 lung): 3.63 µM
GI50 (SW-620 colon): 2.23 µM
TGI (SW-620 colon): 4 µM
GI50 (OVCAR-8 ovarian): 2.31 µM
TGI (OVCAR-8 ovarian): 5.02 µM
GI50 (OVCAR-3 ovarian): 2.07 µM
TGI (OVCAR-3 ovarian): 3.68 µM
GI50 (HL-60(TB) leukemia): 7.33 µM
TGI (HL-60(TB) leukemia): 35.7 µM
GI50 (NCI-H23 lung): 13.7 µM
TGI (NCI-H23 lung): 34 µM
GI50 (SF-295 CNS): 10.6 µM
TGI (SF-295 CNS): 26.5 µM
GI50 (UACC-62 melanoma): 1.83 µM
TGI (UACC-62 melanoma): 3.53 µM
GI50 (ACHN renal): 3.28 µM
TGI (ACHN renal): 11.4 µM
GI50 (MALME-3M melanoma): 1.61 µM
TGI (MALME-3M melanoma): 3.19 µM
GI50 (MDA-MB-435): 1.64 µM
TGI (MDA-MB-435): 3.14 µM
GI50 (SR leukemia): 1.93 µM
TGI (SR leukemia): 5.93 µM
GI50 (HCT-15 colon): 1.73 µM
TGI (HCT-15 colon): 3.35 µM
GI50 (CAKI-1 renal): 15.8 µM
TGI (CAKI-1 renal): 32.3 µM
GI50 (SNB-75 CNS): 1.38 µM
TGI (SNB-75 CNS): 5.73 µM
GI50 (A549 NSCLC): 2.57 µM
TGI (A549 NSCLC): 7.11 µM
GI50 (HS 578T breast): 7.85 µM
TGI (HS 578T breast): 27.7 µM
GI50 (EKVX NSCLC): 2 µM
TGI (EKVX NSCLC): 4.01 µM
GI50 (HOP-62 NSCLC): 13.4 µM
TGI (HOP-62 NSCLC): 42.8 µM
GI50 (OVCAR-5 ovarian): 2.08 µM
TGI (OVCAR-5 ovarian): 3.92 µM
GI50 (IGROV1 ovarian): 2.13 µM
TGI (IGROV1 ovarian): 3.96 µM
GI50 (HCC-2998 colon): 9.83 µM
TGI (HCC-2998 colon): 29.3 µM
GI50 (CCRF-CEM leukemia): 2.29 µM
TGI (CCRF-CEM leukemia): 6.66 µM
GI50 (NCI/ADR-RES ovarian): 2.2 µM
TGI (NCI/ADR-RES ovarian): 4.54 µM
GI50 (MCF7 breast): 1.66 µM
TGI (MCF7 breast): 3.45 µM
GI50 (TK-10 renal): 14.5 µM
TGI (TK-10 renal): 34.9 µM
GI50 (PC-3 prostate): 1.74 µM
TGI (PC-3 prostate): 3.34 µM
GI50 (SF-268 CNS): 2.25 µM
TGI (SF-268 CNS): 4.24 µM
GI50 (SN12C renal): 1.92 µM
TGI (SN12C renal): 3.56 µM
GI50 (SF-539 CNS): 1.53 µM
TGI (SF-539 CNS): 3.07 µM
GI50 (MDA-MB-231 breast): 1.6 µM
TGI (MDA-MB-231 breast): 3.13 µM
GI50 (K-562 leukemia): 0.0566 µM
TGI (K-562 leukemia): 1.85 µM
GI50 (HCT-116 colon): 1.8 µM
TGI (HCT-116 colon): 3.48 µM
GI50 (HOP-92 NSCLC): 4.53 µM
TGI (HOP-92 NSCLC): 21.6 µM

From PubChem BioAssay (NCI)
